The test system of the assay is L1210 leukemia ip in BDF1 mice, survival T/C. Nature of the assay: NCI In Vivo Anticancer Drug Screen. Data for tumor model L1210 Leukemia (intraperitoneal) in B6D2F1 (BDF1) mice. The settings on record: endpoint: mean survival time, higher = longer survival. The procedure, abridged: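 Tumor cells were implanted, animals were treated, and survival was followed. The result divides the treated measurement by the vehicle-control measurement.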

Where [1] appears, read: dose: 100.0 mg/kg/injection, schedule: Q01DX001 (ip), vehicle: saline.
[2] abbreviates: dose: 400.0 mg/kg/injection, schedule: Q01DX001 (ip), vehicle: saline.
Setting [3] is: dose: 100.0 mg/kg/injection, schedule: Q01DX001 (ip), vehicle: Klucel (hydroxypropylcellulose) (HPC).
Setting [4] is: dose: 200.0 mg/kg/injection, schedule: Q01DX001 (ip), vehicle: Klucel (hydroxypropylcellulose) (HPC).
Setting [5] is: dose: 400.0 mg/kg/injection, schedule: Q01DX001 (ip), vehicle: Klucel (hydroxypropylcellulose) (HPC).
The mark [6] stands for this setting: dose: 100.0 mg/kg/injection, schedule: Q01DX009 (ip), vehicle: Klucel (hydroxypropylcellulose) (HPC).
Setting [7] is: dose: 200.0 mg/kg/injection, schedule: Q01DX009 (ip), vehicle: Klucel (hydroxypropylcellulose) (HPC).
Setting [8] is: dose: 200.0 mg/kg/injection, schedule: Q01DX001 (ip), vehicle: saline.
[9] abbreviates: dose: 100.0 mg/kg/injection, schedule: Q04DX003 (ip), vehicle: saline with Tween-80.
Setting [10] is: dose: 200.0 mg/kg/injection, schedule: Q04DX003 (ip), vehicle: saline with Tween-80.
[11] abbreviates: dose: 100.0 mg/kg/injection, schedule: Q04DX003 (ip), vehicle: Klucel (hydroxypropylcellulose) (HPC).
Where [12] appears, read: dose: 200.0 mg/kg/injection, schedule: Q04DX003 (ip), vehicle: Klucel (hydroxypropylcellulose) (HPC).
The mark [13] stands for this setting: dose: 400.0 mg/kg/injection, schedule: Q01DX009 (ip), vehicle: Klucel (hydroxypropylcellulose) (HPC).
Where [14] appears, read: dose: 400.0 mg/kg/injection, schedule: Q04DX003 (ip), vehicle: Klucel (hydroxypropylcellulose) (HPC).
[15] abbreviates: dose: 100.0 mg/kg/injection, schedule: Q04DX002 (ip), vehicle: Klucel (hydroxypropylcellulose) (HPC).
The mark [16] stands for this setting: dose: 200.0 mg/kg/injection, schedule: Q04DX002 (ip), vehicle: Klucel (hydroxypropylcellulose) (HPC).
[17] abbreviates: dose: 400.0 mg/kg/injection, schedule: Q04DX002 (ip), vehicle: Klucel (hydroxypropylcellulose) (HPC).

These results are taken from PubChem BioAssay AID248 (DTP/NCI, 2004).

The structures appear in SMILES notation. “And” between values parts separate entries of the source, which are not always exact repeats. Equal entries are not always repeated. Toxic doses and inconclusive results are not listed.

As to `N#Cc1c(Br)n(C2OC(CO)C(O)C2O)c2ncnc(N)c12` (centres undefined), the T/C runs as follows: under setting [1], 123 % of control; (dose: 178.0 mg/kg/injection, schedule: Q01DX001 (ip), vehicle: saline) 104 % of control and 115 % of control; (dose: 267.0 mg/kg/injection, schedule: Q01DX001 (ip), vehicle: saline) 110 % of control and 117 % of control; under setting [2], 112 % of control and 121 % of control; (dose: 600.0 mg/kg/injection, schedule: Q01DX001 (ip), vehicle: saline) 114 % of control.

As for `COc1cc(N)nc(OC)n1`, the T/C by setting is: (dose: 100.0 mg/kg/injection, schedule: Q01DX009 (ip), vehicle: saline with Tween-80) 98 % of control; (dose: 200.0 mg/kg/injection, schedule: Q01DX009 (ip), vehicle: saline with Tween-80) 98 % of control; (dose: 400.0 mg/kg/injection, schedule: Q01DX009 (ip), vehicle: saline with Tween-80) 97 % of control.

Consider `Cc1ccc(S(=O)(=O)/N=C2\SCc3ccccc32)cc1`, for which the T/C by setting is: (dose: 12.5 mg/kg/injection, schedule: Q01DX009 (ip), vehicle: saline) 108 % of control; (dose: 25.0 mg/kg/injection, schedule: Q01DX009 (ip), vehicle: saline) 105 % of control; (dose: 50.0 mg/kg/injection, schedule: Q01DX009 (ip), vehicle: saline) 94 % of control and 101 % of control; under setting [3], 94 % of control; under setting [4], 88 % of control; under setting [5], 98 % of control.

Take `Nc1nn(-c2ccccc2)c(N)c1N=Nc1ccccc1`: the T/C was 98 % of control (dose: 50.0 mg/kg/injection, schedule: Q01DX009 (ip), vehicle: Klucel (hydroxypropylcellulose) (HPC)); 98 % of control under setting [6]; 98 % of control under setting [7].

As to `c1ccc2c(C3CSC3)nncc2c1`, the T/C is 97 % of control under setting [1], 97 % of control under setting [8] and 94 % of control under setting [2].

Take `CCOC(=O)CC/C(=C/c1ccccc1)[N+](=O)[O-]`: the T/C was 97 % of control and 104 % of control (dose: 25.0 mg/kg/injection, schedule: Q04DX003 (ip), vehicle: saline with Tween-80); 94 % of control and 98 % of control (dose: 50.0 mg/kg/injection, schedule: Q04DX003 (ip), vehicle: saline with Tween-80); 106 % of control and 107 % of control and 121 % of control under setting [9]; 89 % of control under setting [10].

Take `COc1cc2nc(/C=C/c3nc4cc(OC)c(OC)cc4[nH]3)[nH]c2cc1OC`: the T/C reads like this: (dose: 25.0 mg/kg/injection, schedule: Q01DX001 (ip), vehicle: saline with Tween-80) 100 % of control; (dose: 50.0 mg/kg/injection, schedule: Q01DX001 (ip), vehicle: saline with Tween-80) 100 % of control; (dose: 100.0 mg/kg/injection, schedule: Q01DX001 (ip), vehicle: saline with Tween-80) 94 % of control.

Regarding `CC(=O)C12OC1CC1C3CCC4=CC(=O)CCC4(C)C3CC(=O)C12C` (centres undefined), the T/C was 94 % of control (dose: 75.0 mg/kg/injection, schedule: Q01DX009 (ip), vehicle: carboxymethylcellulose (CMC)); 107 % of control (dose: 150.0 mg/kg/injection, schedule: Q01DX009 (ip), vehicle: carboxymethylcellulose (CMC)); 105 % of control (dose: 300.0 mg/kg/injection, schedule: Q01DX009 (ip), vehicle: carboxymethylcellulose (CMC)).

Take `C=C(C)COP(=O)(OCC(=C)C)OCC(=C)C`: the T/C under setting [6] was 97 % of control; the T/C under setting [11] is 97 % of control; the T/C under setting [7] is 100 % of control; the T/C under setting [12] is 100 % of control; the T/C under setting [13] is 103 % of control; the T/C under setting [14] was 92 % of control.

Turning to `O=C(Nc1cc(C(F)(F)F)ccc1Cl)n1cccc1`, the T/C runs as follows: under setting [6], 113 % of control; under setting [7], 113 % of control; under setting [13], 106 % of control.

Regarding `COC(=O)C1OC1c1cc(Br)ccc1OC` (centres undefined), the T/C is, setting by setting: under setting [1], 102 % of control; under setting [8], 103 % of control; under setting [2], 102 % of control.

For the molecule `CCCCN(C#N)CC(C)(C)[N+](=O)[O-]`, the T/C was 103 % of control (dose: 111.0 mg/kg/injection, schedule: Q01DX Z (ip), vehicle: methylcellulose (MC)); 97 % of control (dose: 166.0 mg/kg/injection, schedule: Q01DX Z (ip), vehicle: methylcellulose (MC)); 108 % of control (dose: 250.0 mg/kg/injection, schedule: Q01DX Z (ip), vehicle: methylcellulose (MC)).

Take `CC(=O)Nc1nnc(Sc2ccc([N+](=O)[O-])cc2[N+](=O)[O-])s1`: the T/C runs as follows: under setting [6], 95 % of control; under setting [7], 95 % of control; under setting [13], 100 % of control.

Turning to `O=C(O)c1c2c(nc3ccccc13)CCC(C(=O)O)C2` (centres undefined), the T/C under setting [15] was 95 % of control, the T/C under setting [16] is 95 % of control and the T/C under setting [17] is 103 % of control.

Take `Cc1ccc(-c2ccc(-c3ccc(C)cc3)o2)cc1`: the T/C by setting is: under setting [3], 95 % of control; under setting [4], 102 % of control and 90 % of control; under setting [5], 94 % of control.

Take `Cc1cc2nc3c(=O)[nH]c(=O)nc-3n(CCN(CCCl)CCCl)c2cc1C`: the T/C is, setting by setting: (dose: 42.0 mg/kg/injection, schedule: Q01DX015 (ip), vehicle: carboxymethylcellulose (CMC)) 115 % of control; (dose: 72.0 mg/kg/injection, schedule: Q01DX015 (ip), vehicle: carboxymethylcellulose (CMC)) 96 % of control; (dose: 120.0 mg/kg/injection, schedule: Q01DX015 (ip), vehicle: carboxymethylcellulose (CMC)) 86 % of control; (dose: 400.0 mg/kg/injection, schedule: Q01DX001 (ip), vehicle: carboxymethylcellulose (CMC)) 152 % of control; (dose: 600.0 mg/kg/injection, schedule: Q01DX001 (ip), vehicle: carboxymethylcellulose (CMC)) 103 % of control.

`O=[N+]([O-])c1cccc(C=Nc2cccc(C(F)(F)F)c2)c1`: the T/C by setting is: under setting [6], 109 % of control; under setting [11], 110 % of control; under setting [7], 98 % of control; under setting [12], 110 % of control; under setting [14], 101 % of control.

In the case of `CCOc1ccc(/C=N/NS(=O)(=O)c2ccc(C)cc2)cc1`, the T/C under setting [6] is 104 % of control; the T/C under setting [11] is 91 % of control; the T/C under setting [7] was 100 % of control; the T/C under setting [12] was 92 % of control; the T/C under setting [13] is 94 % of control; the T/C under setting [14] is 92 % of control.

With `CC(C)(C)c1cc(/C=N/NC(=O)CCCCCCCCC(=O)N/N=C/c2cc(C(C)(C)C)c(O)c(C(C)(C)C)c2)cc(C(C)(C)C)c1O`, the T/C is 104 % of control under setting [3]; 94 % of control under setting [6]; 109 % of control under setting [15]; 111 % of control under setting [11]; 103 % of control under setting [4]; 94 % of control and 90 % of control under setting [7]. For the same molecule, the T/C reads like this: under setting [16], 100 % of control; under setting [12], 110 % of control; under setting [5], 93 % of control; under setting [17], 102 % of control; under setting [14], 108 % of control.

With `COc1cc2c(cc1OC)C(CC(C)C)=[N+](C)CC2`, the T/C runs as follows: (dose: 25.0 mg/kg/injection, schedule: Q04DX002 (ip), vehicle: saline with Tween-80) 93 % of control; (dose: 50.0 mg/kg/injection, schedule: Q04DX002 (ip), vehicle: saline with Tween-80) 93 % of control; (dose: 100.0 mg/kg/injection, schedule: Q04DX002 (ip), vehicle: saline with Tween-80) 93 % of control.

As to `CCc1ccc(NC(C)=O)cc1`, the T/C is 105 % of control under setting [9]; 94 % of control under setting [10]; 102 % of control (dose: 400.0 mg/kg/injection, schedule: Q04DX003 (ip), vehicle: saline with Tween-80).

`O=C(Oc1ccc(O)cc1)c1ccccc1`: the T/C reads like this: (dose: 25.6 mg/kg/injection, schedule: Q04DX002 (ip), vehicle: saline) 88 % of control; (dose: 64.0 mg/kg/injection, schedule: Q04DX002 (ip), vehicle: saline) 95 % of control; (dose: 160.0 mg/kg/injection, schedule: Q04DX002 (ip), vehicle: saline) 92 % of control; (dose: 400.0 mg/kg/injection, schedule: Q04DX002 (ip), vehicle: saline) 92 % of control.

As for `CC1(C)OCC(C(NC(=O)c2ccccc2)C(OC(=O)c2ccccc2)C2COC(C)(C)O2)O1` (centres undefined), the T/C was 90 % of control under setting [15], 90 % of control under setting [16] and 90 % of control under setting [17].
